Converted amounts (≈) assume the structure as drawn.
Tests used:
[1] = Solubility of APIs in ethanol & water vehicles; format: physicochemical; settings: for Solubility in water and ethanol (in words): comparison among the screened APIs
[2] = Franz cell porcine skin permeation, ToF-SIMS cross sectional analysis; format: in vitro ADME, pig; settings: cross sections; 1 mg/ml Diclofenac; partial embedding
Protocol: The experimental work involved applying various formulations to the skin in a Franz cell, leaving it for 24 hours as an infinite dose. Initial formulations were 1 mg/ml Nanocin and 300 ug/ml API in 20% ethanol. The same concentration of formulation were also used using FITC labelled Nanocin. Methods of detection was by: Franz Cell Method 1: Full OCT Embedding Method and Cryo-Sectioning; Franz Cell Method 2: Partial OCT Embedding and Cryo-Sectioning; Franz Cell Method 3: Partial OCT Embedding and Tape Stripping; and Time-of-Flight Secondary Ion Mass Spectrometry (ToF-SIMS) Fluorescence Microscopy.
Porcine ears used for the Franz cell analysis were sourced from a local abattoir. The age of the pig slaughtered were between 4-6 months old. The ears were cleaned with deionised water and the outside skin was carefully removed from the underlying cartilage. The excised skin was then stored at −20° C. until use. All ears used for the permeation experiment were within 6 months after procurement.
Prior to setting up the Franz cells, the skin was defrosted by leaving it at room temperature and pressure. Excess hairs on the porcine skin were not trimmed in this instance (to promote capacity to identify follicular delivery). […]

[3] = system: IL-8 release, THP-1 cells; experiment: LPS-stimulated IL-8 release in THP-1 cells (inflammation assay); format: cell-based, human; settings: for potency at inhibiting the LPS inflammatory response (in words): IL-8, dose range 0-30 ug/ml; for MIC (inhibiting the LPS IL-8 response): API dose range 0-30 ug/ml
[4] = system: TNF-α release, THP-1 cells; experiment: LPS-stimulated TNF-α release in THP-1 cells (inflammation assay); format: cell-based, human; settings: final concentration 1 or 0.1 ug/ml; normalised with cell count
Protocol: The release of cytokines (looking particularly at those associated with inflammation-TNF-α, IL-8, IL-1α) after stimulation with lipopolysaccharide (LPS) is a valid model system to test compounds for potential anti-inflammatory effects (Reference 1)
To standardise conditions for the assay, a LPS dose (0-1 ug/ml) was investigated on TNF-α, IL-8 and IL-1α response, over a time period from 2, 4 and 24 hours.
A 1:1 mg/ml (Nanocin:API) was initially formulated in 20% ethanol and the stock formulation was then diluted down with serum free media and tested at a final concentration of 1 or 0.1 ug/ml.

[5] = Franz cell porcine skin permeation, ToF-SIMS tape strip analysis; format: in vitro ADME, pig; settings: for evidence of permeation (key findings): porcine skin, ToF-SIMS imaging and tape stripping, with or without Nanocin

SMILES	Solubility in water and ethanol (in words) [1]	potency at inhibiting the LPS inflammatory response (in words) ([3]; THP-1 cells)	MIC (inhibiting the LPS IL-8 response) ([3]; THP-1 cells, 24 h)	evidence of permeation (key findings) [5]	other results
Cc1ccc(-c2cc(C(F)(F)F)nn2-c2ccc(S(N)(=O)=O)cc2)cc1 [Celecoxib]	insolubility	–	–	–	–
O=C(O)Cc1ccccc1Nc1c(Cl)cccc1Cl [Diclofenac]	most soluble	more potent than Ibuprofen	1 µg/mL (≈ 3.38 µM)	–	intensity of Cl—, NaCl2- and Na2Cl3- markers in the stratum corneum [2]: slight elevation; LPS-stimulated IL-8 response ([3]; final concentration 1 or 0.1 ug/ml, normalised with cell count): reduced; LPS-stimulated TNF-α response [4]: reduced; presence of NaCl2— and Na2Cl3— ions (diclofenac markers) ([5]; tape strips 1-3, 1 mg/ml Diclofenac): none
CC(C)Cc1ccc(C(C)C(=O)O)cc1 (stereo not drawn) [Ibuprofen]	better solubility	–	–	no evidence	effect on reducing the IL-8 release ([3]; 30 ug/ml API, LPS 24 h, THP-1 cells): very little effect
CO[C@H]1C[C@@H]2CC[C@@H](C)[C@@](O)(O2)C(=O)C(=O)N2CCCC[C@H]2C(=O)O[C@H]([C@H](C)C[C@@H]2CC[C@@H](O)[C@H](OC)C2)CC(=O)[C@H](C)/C=C(\C)[C@@H](O)[C@@H](OC)C(=O)[C@H](C)C[C@H](C)/C=C/C=C/C=C/1C [Rapamycin]	–	–	1 µg/mL (≈ 1.09 µM)	no evidence	–
C=CC[C@@H]1/C=C(\C)C[C@H](C)C[C@H](OC)[C@H]2O[C@@](O)(C(=O)C(=O)N3CCCC[C@H]3C(=O)O[C@H](/C(C)=C/[C@@H]3CC[C@@H](O)[C@H](OC)C3)[C@H](C)[C@@H](O)CC1=O)[C@H](C)C[C@@H]2OC [Tacrolimus]	–	more potent than Ibuprofen	0.3 µg/mL (≈ 0.373 µM)	no evidence	anti-inflammatory effect, IL-8 normalised with cell count ([3]; 30 ug/ml API, 10 ug/ml LPS, 24 h): more effective anti-inflammatory; Solubility ([1]; 10 mg/ml API solution, 10% ethanol): x(better)

From patent publication US20210259981A1, “COMPOSITIONS AND METHODS OF TREATMENT” (Blueberry Therapeutics Limited, priority 2018, published 2021)
